Read-outs that look alike come from different tables or passages of the source.

Assay [1] deals with human RIPK1 (Homo sapiens (Human), UniProt Q13546). Nature of the assay: KINOMEscan binding assay, human RIPK1. To be noted: Table 21. The essentials: (§1)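 Active-site competition binding: DNA-tagged kinase (T7 phage fusion from BL21-derived E. coli lysate, or HEK-293-expressed) captured on immobilized-ligand beads, with bound kinase in the eluate quantified by qPCR. Compounds ran as 11-point 3-fold dilutions, 1% DMSO, top 30,000 nM for most. Kd came from a Hill fit (slope −1).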
human RIPK1, sequence (Q13546 whole entry, the tested form may be a part): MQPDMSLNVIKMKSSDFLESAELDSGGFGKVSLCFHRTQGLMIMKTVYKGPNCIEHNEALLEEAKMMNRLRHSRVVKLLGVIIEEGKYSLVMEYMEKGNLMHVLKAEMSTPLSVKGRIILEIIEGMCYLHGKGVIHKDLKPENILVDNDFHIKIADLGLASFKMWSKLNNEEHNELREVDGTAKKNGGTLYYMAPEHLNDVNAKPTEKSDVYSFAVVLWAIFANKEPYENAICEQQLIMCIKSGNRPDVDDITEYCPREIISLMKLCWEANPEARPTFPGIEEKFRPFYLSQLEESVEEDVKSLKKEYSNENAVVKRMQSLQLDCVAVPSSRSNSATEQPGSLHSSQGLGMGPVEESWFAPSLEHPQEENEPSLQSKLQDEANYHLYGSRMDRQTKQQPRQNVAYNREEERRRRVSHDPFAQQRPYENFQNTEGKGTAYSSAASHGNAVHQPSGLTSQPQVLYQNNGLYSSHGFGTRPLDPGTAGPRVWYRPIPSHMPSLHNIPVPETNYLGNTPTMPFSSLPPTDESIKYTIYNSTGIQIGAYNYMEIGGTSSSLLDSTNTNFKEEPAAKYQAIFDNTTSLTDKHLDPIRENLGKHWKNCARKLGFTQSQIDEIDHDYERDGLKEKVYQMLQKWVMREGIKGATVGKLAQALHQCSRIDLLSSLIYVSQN

Assay [2] has as its system Immortalised Mouse Dermal Fibroblasts (MDFs). Put plainly: Cellular assay: inhibition of TSI induced necroptosis, CellTitre-Glo viability. To be noted: Mus musculus, Fibroblast, MDF, 3 hours TSI cocktail, read-out: Inhibition of TSI-induced necroptosis (IC50 cell-based assay) in MDF. Here is the method:
Cellular Assay: Screening Compounds for Inhibition of TSI Induced Necroptosis in, 384 Well Plate Format.
• Cell Line ID: Immortalised Mouse Dermal Fibroblasts (MDFs). • Cell Concentration (cells/well): Final cell density is 2200 cells per well. • Cell growth medium: DMEM medium+7.4% Fetal Bovine Serum (FBS). Cells are cultured in Corning 150 cm^2 tissue culture flasks with vented caps at 37° C./10% CO2. • Incubation: Plates were incubated for 30 minutes following addition of compounds and then 3 hours incubation with death stimuli (TSI cocktail) at 37° C./10% CO2 in a humidified incubator. • Compound concentration: 36 μM starting concentration, 1:3 dilution, 10 point • DMSO final concentration (% v/v): 0.3%. Compounds in TSI Cocktail (T: TNF; S: Smac Mimetic; I: IDN-6556) and their Final Concentrations: • rhTNF (100 ng/ml) • Compound a (500 nM)—Smac Mimetic, Tetralogic and SYNthesis Med Chem • IDN-6556 (10 μM)—Selleckchem (S7775)
The cellular assay was carried out according to the following steps: • 1. Each well was prepared by sequential addition of: • a. 40 μL of cell suspension (5.5×10^4 cells/mL) was added to each well to provide a final cell concentration of 2,200 cells per well. • b. After 24 hours, DMSO (control; columns 1-2 and 23-24) or compound in DMSO—addition was performed using acoustic transfer of nL volumes of stock compound to give final test concentrations of 36, 12, 4, 1.3, 0.44, 0.148, 0.049, 0.016, 0.005 and 0.002 μM. All wells were backfilled with DMSO to a final total volume in the well of 100 nL. • c. Following compound/DMSO addition in step (b), Plates were incubated for 30 minutes at 37° C./10% CO2 in a humidified incubator and then 10 μL of 5×TSI cocktail (except to positive controls; columns 2 and 24) was added to each well. • 2. After 3 hours, plate was removed from the 37° C. incubator and equilibrated to room temperature for 15 minutes. • 3. 15 μL of room temperatured CellTitre-Glo2™ (Promega™) was added to each well. • 4. Shook plates for 2 minutes (˜600 rpm) and incubated at room temperature for 15 minutes to allow signal to stabilise. • 5. Read luminescence readout on a plate reader.
Percent viability was calculated for each compound according to equation (2):
[formula] • Wherein RawData is the readout of any cell containing a compound of the invention.
TA is the total activity provided by the luminescence readout from DMSO only wells (columns 2 and 24)=100% viability.
NSA is the non-specific activity provided by DMSO+TSI wells (columns 1 and 23)=0% viability • Curve fitting: 10-point titration curves are fitted with the 4-parameter logistic nonlinear regression model and the IC50 reported is the inflection point of the curve • Analysis: Data was loaded into Dotmatics™ and visualised using the Tibco@ • Spotfire™ software. 10 point titration curves were fitted with the 4 parameter logistic nonlinear regression model and the IC50 reported reflect the inflection point of the curve for curve fitting.
Assay involving the TSI cocktail (T: TNF; S: Smac mimetic; I: IDN-6556): TSI treatment ensures that cells specifically undergo necroptotic cell death. TNF activates the TNF receptor, Smac mimetic directs the signal away from proinflammatory signaling and toward the RIPK1/RIPK3-mediated cell death pathways, and IDN-6556 (Caspase inhibitor) ensures that the apoptotic response is blocked leaving only the programmed necrosis response. The compounds' activity (solution in DMSO) tested in this TSI-induced assay was evaluated by determining the number of viable cells in culture by measuring the amount of ATP present as measured by CelltiterGlo.

The target of assay [3] is human RIPK3 (Homo sapiens (Human), UniProt Q9Y572). Put plainly: KINOMEscan binding assay, human RIPK3. To be noted: Table 21. The essentials: as §1
human RIPK3, sequence (Q9Y572 whole entry): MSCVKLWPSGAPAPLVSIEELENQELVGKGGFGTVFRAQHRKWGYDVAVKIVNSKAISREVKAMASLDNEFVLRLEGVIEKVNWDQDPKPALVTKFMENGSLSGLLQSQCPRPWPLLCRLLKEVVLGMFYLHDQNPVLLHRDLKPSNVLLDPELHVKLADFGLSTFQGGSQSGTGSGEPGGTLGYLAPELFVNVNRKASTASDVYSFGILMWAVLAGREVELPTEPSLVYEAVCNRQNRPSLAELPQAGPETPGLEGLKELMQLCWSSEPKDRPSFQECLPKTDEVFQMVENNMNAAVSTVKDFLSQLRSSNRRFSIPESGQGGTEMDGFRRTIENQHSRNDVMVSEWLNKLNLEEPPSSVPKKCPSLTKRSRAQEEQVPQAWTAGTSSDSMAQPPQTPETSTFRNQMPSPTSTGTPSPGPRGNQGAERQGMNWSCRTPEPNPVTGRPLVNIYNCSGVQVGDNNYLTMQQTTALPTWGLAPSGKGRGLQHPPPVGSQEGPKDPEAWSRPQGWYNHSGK
Assay [4] has as its target human MLKL (full length) (Homo sapiens (Human), UniProt Q8NB16). Nature of the assay: KINOMEscan binding assay, human MLKL (full length). The essentials: as §1
[5] abbreviates: KINOMEscan, Table 21, read-out: Human MLKL (full-length) (KD).
The mark [6] stands for this setting: hMLKL, Table 25, read-out: MLKL (KD).

human MLKL (full length), sequence (Q8NB16 whole entry): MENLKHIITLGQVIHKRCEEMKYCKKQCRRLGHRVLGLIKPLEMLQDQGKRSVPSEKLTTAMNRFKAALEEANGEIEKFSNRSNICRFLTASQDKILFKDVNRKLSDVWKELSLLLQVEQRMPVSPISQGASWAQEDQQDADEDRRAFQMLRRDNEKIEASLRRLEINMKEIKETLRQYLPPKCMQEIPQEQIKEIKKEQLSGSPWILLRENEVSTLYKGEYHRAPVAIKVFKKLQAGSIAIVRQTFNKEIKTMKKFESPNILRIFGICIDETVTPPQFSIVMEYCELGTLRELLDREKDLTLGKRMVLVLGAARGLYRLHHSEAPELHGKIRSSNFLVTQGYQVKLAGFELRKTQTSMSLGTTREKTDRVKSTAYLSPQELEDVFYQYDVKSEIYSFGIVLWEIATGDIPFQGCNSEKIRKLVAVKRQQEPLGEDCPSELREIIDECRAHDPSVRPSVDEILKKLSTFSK

For `CC1C(n2cc(-c3cnc(N)c4c(-c5ccc(NS(=O)(=O)C(F)F)c(O[C@@H](C)c6ccc(F)cc6)c5)nn(C)c34)cn2)CN1C` (stereo partly drawn) [Compound 147, N-(4-(4-amino-7-(1-(1,2-dimethylazetidin-3-yl)-1H-pyrazol-4-yl)-1-methyl-1H-pyrazolo[4,3-c]pyridin-3-yl)-2-((S)-1-(4-fluorophenyl)ethoxy)phenyl)-1,1-difluoromethanesulfonamide], the Kd in assay [1] and in assay [3] was more than 10000 nM throughout. Moreover, in assay [2] (Table 24), the IC50 (as a rule, the point on the concentration scale where inhibition reaches its midpoint) was less than 1000 nM.
As for `C[C@H](Oc1cc(-c2nn(C)c3c(-c4cnn(C5CCN(C)C(C(F)(F)F)C5)c4)cnc(N)c23)ccc1NS(=O)(=O)C(F)F)c1ccc(F)cc1` (stereo partly drawn) [Compound 148, N-(4-(4-amino-1-methyl-7-(1-(1-methyl-2-(trifluoromethyl)piperidin-4-yl)-1H-pyrazol-4-yl)-1H-pyrazolo[4,3-c]pyridin-3-yl)-2-((S)-1-(4-fluorophenyl)eth-oxy)phenyl)-1,1-difluoromethane-sulfonamide], the Kd in assay [1] and in assay [3] was more than 10000 nM each time. In assay [2] (Table 24), the IC50 was less than 1000 nM.
On to `C[C@H](Oc1cc(-c2nn(C)c3c(-c4cnn(C5CCC(N(C)C)C5)c4)cnc(N)c23)ccc1NS(=O)(=O)C(F)F)c1ccc(F)cc1` (stereo partly drawn) [Compound 168, N-(4-(4-amino-7-(1-(3-(dimethylamino)cyclopentyl)-1H-pyrazol-4-yl)-1-methyl-1H-pyrazolo[4,3-c]pyridin-3-yl)-2-((S)-1-(4-fluorophenyl)ethoxy)phenyl)-1,1-difluoromethanesulfonamide], for which the Kd (in general, a measure of binding affinity in units of concentration) in assay [1] was more than 10000 nM; in assay [3] it was more than 10000 nM; in assay [4] (setting [5]), less than 1 nM. The IC50 in assay [2] (Table 24) was less than 1000 nM.
Consider `C[C@H](Oc1cc(-c2nn(C)c3c(-c4cnn(C5CC6CCC(C5)N6CC(F)(F)F)c4)cnc(N)c23)ccc1NS(=O)(=O)C(F)F)c1ccc(F)cc1` (stereo partly drawn) [Compound 153, N-(4-(4-amino-1-methyl-7-(1-(8-(2,2,2-trifluoroethyl)-8-azabicyclo[3.2.1]octan-3-yl)-1H-pyrazol-4-yl)-1H-pyrazolo[4,3-c]pyridin-3-yl)-2-((S)-1-(4-fluorophenyl)ethoxy)phenyl)-1,1-difluoromethanesulfonamide], for which the Kd in assay [1] and in assay [3] was more than 10000 nM in each case. Moreover, the IC50 in assay [2] (Table 24) was less than 1000 nM.
Turning to `C[C@H](Oc1cc(-c2nn(C)c3c(-c4cnn(C5CCC(C)(C)N(C)C5)c4)cnc(N)c23)ccc1NS(=O)(=O)C(F)F)c1ccc(F)cc1` (stereo partly shown) [Compound 104, N-(4-{4-amino-1-methyl-7-[1-(1,6,6-trimethylpiperidin-3-yl)-1H-pyrazol-4-yl]-1H-pyrazolo[4,3-c]pyridin-3-yl}-2-[(1 S)-1-(4-fluorophenyl)ethoxy]phenyl)-1,1-difluoromethanesulfonamide], the results for the Kd in assay [1], in assay [3] and in assay [4] (setting [5]) were more than 10000 nM, more than 10000 nM and less than 1 nM, respectively. For the same compound, the IC50 in assay [2] (Table 24) is less than 1000 nM.
With `C[C@H](Oc1cc(-c2nn(C)c3c(C#CC4CCN(C)CC4)cnc(N)c23)ccc1NS(=O)(=O)C(F)F)c1ccc(F)cc1` [Compound 80, (S)—N-(4-(4-amino-1-methyl-7-((1-methylpiperidin-4-yl)ethynyl)-1H-pyrazolo[4,3-c]pyridin-3-yl)-2-(1-(4-fluorophenyl)ethoxy)phenyl)-1,1-difluoromethanesulfonamide], the Kd in assay [1] is more than 10000 nM; in assay [3], more than 10000 nM; in assay [4] (setting [5]), less than 1 nM. Further, the IC50 in assay [2] (Table 24) was less than 1000 nM.
In the case of `Cc1ncsc1-c1ccc(CNC(=O)[C@@H]2C[C@@H](O)CN2C(=O)[C@@H](NC(=O)C2(F)CC2)C(C)(C)C)c(OCCOCCOCCOCCn2cc(-c3cnc(N)c4c(-c5ccc(NS(=O)(=O)C(F)F)c(O[C@@H](C)c6ccc(F)cc6)c5)nn(C)c34)cn2)c1` [Compound 1061, (2S,4R)-N-({2-[2-(2-{2-[2-(4-{4-amino-3-[4-(difluoromethanesulfonamido)-3-[(1S)-1-(4-fluorophenyl)ethoxy]phenyl]-1-methyl-1H-pyrazolo[4,3-c]pyridin-7-yl}-1H-pyrazol-1-yl)ethoxy]ethoxy}ethoxy)ethoxy]-4-(4-methyl-1,3-thiazol-5-yl)phenyl}methyl)-1-[(2S)-2-[(1-fluorocyclopropyl)formamido]-3,3-dimethylbutanoyl]-4-hydroxypyrrolidine-2-carboxamide], in assay [2] (Table 27), the IC50 fell in the range of 1000 to 10000 nM. Further, the Kd in assay [4] (setting [6]) was less than 10 nM.
Take `CC(=O)N1CCC(n2cc(-c3cnc(N)c4c(-c5ccc(NS(=O)(=O)C(F)F)c(O[C@@H](C)c6ccc(F)cc6)c5)nn(C)c34)cn2)CC1` [Compound 109, (S)—N-(4-(7-(1-(1-acetylpiperidin-4-yl)-1H-pyrazol-4-yl)-4-amino-1-methyl-1H-pyrazolo[4,3-c]pyridin-3-yl)-2-(1-(4-fluorophenyl)ethoxy)phenyl)-1,1-difluoromethanesulfonamide]: the values for the Kd in assay [1], in assay [3] and in assay [4] (setting [5]) were more than 10000 nM, more than 10000 nM and less than 1 nM, respectively. Also, the IC50 in assay [2] (Table 24) was less than 1000 nM.
Consider `Cc1ncsc1-c1ccc(CNC(=O)[C@@H]2C[C@@H](O)CN2C(=O)[C@@H](NC(=O)CCCCOC(=O)c2ccc(-c3cnc(N)c4c(-c5ccc(NS(=O)(=O)C(F)F)c(O[C@@H](C)c6ccc(F)cc6)c5)nn(C)c34)cc2)C(C)(C)C)cc1` [Compound 1064, 4-{[(2S)-1-[(2S,4R)-4-hydroxy-2-({[4-(4-methyl-1,3-thiazol-5-yl)phenyl]methyl}carbamoyl)pyrrolidin-1-yl]-3,3-dimethyl-1-oxobutan-2-yl]carbamoyl}butyl 4-{4-amino-3-[4-(difluoromethanesulfonamido)-3-[(1 S)-1-(4-fluorophenyl)ethoxy]phenyl]-1-methyl-1H-pyrazolo[4,3-c]pyridin-7-yl}benzoate], for which the IC50 in assay [2] (Table 27) is 1000 to 10000 nM. In addition, the Kd in assay [4] (setting [6]) lay in the range of 10 to 1000 nM.
For `C[C@H](Oc1cc(-c2nn(C)c3c(-c4cnn(C5CCN(CCc6cccc7c6C(=O)N(C6CCC(=O)NC6=O)C7=O)CC5)c4)cnc(N)c23)ccc1NS(=O)(=O)C(F)F)c1ccc(F)cc1` (stereo partly drawn) [Compound 1136, N-(4-{4-amino-7-[1-(1-{2-[2-(2,6-dioxopiperidin-3-yl)-1,3-dioxo-2,3-dihydro-1H-isoindol-4-yl]ethyl}piperidin-4-yl)-1H-pyrazol-4-yl]-1-methyl-1H-pyrazolo[4,3-c]pyridin-3-yl}-2-[(1S)-1-(4-fluorophenyl)ethoxy]phenyl)-1,1-difluoromethanesulfonamide], in that order: 1000 to 10000 nM and less than 10 nM.

The values are drawn from patent US20250115598A1 (Anaxis Pharma Pty Ltd, priority 2021, published 2025).
